The values that follow come from patent US20240376097A1, “BCL-2 Inhibitor” (BeiGene Ltd., priority 2020, published 2024).

For assay [1], the system named is RS4;11 (BCL-2 dependent acute lymphoblastic leukemia cell line). The assay can be described thus: RS4;11 Cell Proliferation Assay. Format: cell-based. The conditions noted are these: read-out: Cellular proliferation assay (IC50, nM) RS4. The gist of the method:
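RS4;11 cells, 50,000 per well in RPMI-1640 with 10% FBS, treated 48 h at 37 °C with a 10-point dilution series topping at 1 μM. Viability read by CellTiter-Glo ATP luminescence; mean IC50 reported.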

Assay [2] concerns the target recombinant human Bcl-2-G101V protein (Homo sapiens (Human), UniProt P10415, G101V). The assay can be described thus: Bcl-2-G101V TR-FRET Assay. Format: binding. The conditions noted are these: Bcl-2 G101V mutant, TR-FRET; read-out: Biochemical assay (IC50, nM) Bcl-2 G101V. The gist of the method:
(§1)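 Measures how compounds block Bcl-2-G101V engaging its ligand, by TR-FRET with 337 nm excitation and a 490/520 nm emission ratio; dose-response data give IC50 via a four-parameter logistic model.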

Assay [3] concerns recombinant human Bcl-2-G101V protein. The assay can be described thus: Bcl-2-G101V TR-FRET Assay. Format: binding. The conditions noted are these: for Ratio of Bcl-2 G101V/WT: ratio of biochemical IC50 Bcl-2 G101V / Bcl-2 WT. The method in brief: as §1
Background: TR-FRET usually uses a lanthanide donor and a delayed reading to cut background.

In assay [4] the test system is BCL-2 G101V knock-in cell line H96 (derive from RS4;11). The assay can be described thus: Bcl 2-G101V Knock-In RS4;11 Cell Proliferation Assay. Format: cell-based. The conditions noted are these: RS4;11 Bcl-2 G101V knock-in clone H96, 48 hrs, CellTiter-GLO, read-out: Cellular proliferation assay (IC50, nM) RS4. The gist of the method:
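H96, a CRISPR-generated RS4;11 clone carrying BCL2-G101V knock-in (WES/RNA-seq validated), seeded 50,000 per well and exposed 48 h at 37 °C to 10-point dilutions topping at 1 or 10 μM. Viability by CellTiter-Glo luminescence; mean IC50.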
A general note: In ATP-based viability assays light output follows the ATP content of the culture.

The target of assay [5] is Recombinant human Bcl-2 protein (Homo sapiens (Human), UniProt P10415). The assay can be described thus: Bcl-2 TR-FRET Assay. The class given is binding. The method in brief: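 0.05 nM recombinant Bcl-2 preincubated 0.5 h at room temperature with 10-point compound dilutions (top final 1, 0.1, 0.02 or 0.01 uM) in pH 7.5 phosphate buffer. FITC-Bak peptide (0.5 nM) and anti-6His Tb cryptate then added for 1 h. TR-FRET read; IC50 from four-parameter logistic fit.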

The target in assay [6] is recombinant human Bcl-2 D103Y protein (Homo sapiens (Human), UniProt P10415, D103Y). The assay can be described thus: Bcl-2-D103Y Biochemical Assay (TR-FRET). Format: binding. The conditions noted are these: for IC50: TR-FRET, FITC labeled Bak peptide; for Ratio of Bcl-2 D103Y/Bcl-2 WT: ratio of IC50. The method in brief: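 Recombinant human Bcl-2 D103Y binding to its ligand measured by TR-FRET (ex 337 nm, em 490/520 nm) with increasing compound concentrations. Percent inhibition from the 490/520 nm ratio; IC50 from four-parameter logistic fit.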

Setting [7] is: Bcl-2 wild type, TR-FRET, read-out: Biochemical assay (IC50, nM) Bcl-2 WT.
Setting [8] is: wild type Bcl-2, unit inferred, read-out: Bcl-2 WT.
[9] abbreviates: Homo sapiens, RS4-11, RS4;11 cells.

Where two headings read alike, the source gives them in different places.

Turning to “2-((1H-pyrrolo[2,3-b]pyridin-5-yl) oxy)-N-((4-((((1r,4r)-4-hydroxy-4- methylcyclohexyl)methyl)amino)- 3-nitrophenyl)sulfonyl)-4-(2-((R)- 2-(2-isopropylphenyl)-4-((7- methoxybenzofuran-5-yl)methyl) piperazin-1-yl)-7-azaspiro[3.5] nonan-7-yl)benzamide [Example 280]”, the IC50 in assay [1] (RS4;11 cells) was determined as 0.14 nM; in assay [2], 0.56 nM; in assay [4], 0.43 nM; in assay [5] (setting [7]), 0.26 nM; in assay [5] (setting [8]) it was 0.26 nM; in assay [6] it was 0.23 nM. Besides, the “Ratio of Bcl-2 G101V/WT” value in assay [3] is reported as 2.2. Further, in assay [6], the “Ratio of Bcl-2 D103Y/Bcl-2 WT” value is 0.89.
With `CC(C)c1ccccc1C1CN(C(C)c2ccccc2)CCN1C1CC2(CCN(c3ccc(C(=O)NS(=O)(=O)c4ccc(NC[C@H]5CC[C@](C)(O)CC5)c([N+](=O)[O-])c4)c(Oc4cnc5[nH]ccc5c4)c3)CC2)C1` (single isomer, unassigned) [Example 24b, 2-((1H-pyrrolo[2,3-b]pyridin-5-yl)oxy)-N-((4-((((1r,4r)-4-hydroxy-4-methylcyclohexyl)methyl)amino)-3-nitrophenyl)sulfonyl)-4-(2-(2-(2-isopropylphenyl)-4-(1-phenylethyl)piperazin-1-yl)-7-azaspiro[3.5]nonan-7-yl)benzamide], the IC50 in assay [1] (RS4;11 cells) was determined as 0.75 nM; in assay [2] it was 1.1 nM; in assay [4] (Homo sapiens) it was 6.49 nM; in assay [5] (setting [7]), 0.24 nM; in assay [5] (setting [8]), 0.24 nM; in assay [6] it was 0.56 nM. For the same compound, in assay [3] (comparison in words), the “ratio of IC50 of Bcl-2 G101V/Bcl-2 wt, compared with Example F132b in WO2019210828 and ABT-199 (venetoclax)” value is “much lower”. In addition, in assay [3], the “Ratio of Bcl-2 G101V/WT” value turned out to be 4.6. Besides, the “ratio of Bcl-2 D103Y/Bcl-2 wt, compared with F91b in WO2019210828” value in assay [6] (comparison in words) was “significantly lower”. The “Ratio of Bcl-2 D103Y/Bcl-2 WT” value in assay [6] is 2.3.
With `COc1cc(CN2CCN(C3CC4(C3)CN(c3ccc(C(=O)NS(=O)(=O)c5ccc(NC[C@H]6CC[C@](C)(O)CC6)c([N+](=O)[O-])c5)c(Oc5cnc6[nH]cc(F)c6c5)c3)C4)[C@H](c3ccccc3C(C)C)C2)cc2c1OCCCO2` [Example 335, 2-((3-fluoro-1H-pyrrolo[2,3-b]pyridin-5-yl)oxy)-N-((4-((((1r,4r)-4-hydroxy-4-methylcyclohexyl)methyl)amino)-3-nitrophenyl)sulfonyl)-4-(6-((R)-2-(2-isopropylphenyl)-4-((9-methoxy-3,4-dihydro-2H-benzo[b][1,4]dioxepin-7-yl)methyl)piperazin-1-yl)-2-azaspiro[3.3]heptan-2-yl) benzamide], the IC50 in assay [1] (setting [9]) came to 0.17 nM; in assay [2], 0.15 nM; in assay [4] (Homo sapiens) it was 0.34 nM; in assay [5] (setting [7]), 0.06 nM. Besides, in assay [3], the “Ratio of Bcl-2 G101V/WT” value amounted to 2.6.
On to `COc1cc(CN2CCN(C3CC4(C3)CN(c3ccc(C(=O)NS(=O)(=O)c5ccc(NC[C@H]6CC[C@](C)(O)CC6)c([N+](=O)[O-])c5)c(Oc5cnc6[nH]ccc6c5)c3)C4)[C@H](c3ccccc3C(C)C)C2)cc2c1OC(C)(C)CC2` [Example 336, 2-((1H-pyrrolo[2,3-b]pyridin-5-yl)oxy)-N-((4-((((1r,4r)-4-hydroxy-4-methylcyclohexyl)methyl)amino)-3-nitrophenyl)sulfonyl)-4-(6-((R)-2-(2-isopropylphenyl)-4-((8-methoxy-2,2-dimethylchroman-6-yl)methyl)piperazin-1-yl)-2-azaspiro[3.3]heptan-2-yl) benzamide], for which the IC50 in assay [1] (setting [9]) was 0.2 nM; in assay [2] it was 0.38 nM; in assay [4] (Homo sapiens), 1.1 nM; in assay [5] (setting [7]), 0.09 nM. Further, in assay [3], the “Ratio of Bcl-2 G101V/WT” value is listed as 4.2.
For `COc1cc(CN2CCN(C3CC4(C3)CN(c3ccc(C(=O)NS(=O)(=O)c5ccc(NC[C@H]6CC[C@](C)(O)CC6)c([N+](=O)[O-])c5)c(Oc5cnc6[nH]cc(F)c6c5)c3)C4)[C@H](c3ccccc3C(C)C)C2)ccc1C1CCC1` [Example 341, 4-(6-((R)-4-(4-cyclobutyl-3-methoxybenzyl)-2-(2-isopropylphenyl)piperazin-1-yl)-2-azaspiro[3.3]heptan-2-yl)-2-((3-fluoro-1H-pyrrolo[2,3-b]pyridin-5-yl)oxy)-N-((4-((((1r,4r)-4-hydroxy-4-methylcyclohexyl)methyl)amino)-3-nitrophenyl)sulfonyl)benzamide], in that order: 0.12 nM, 4.5 nM, 0.68 nM, 1.6 nM and 2.8.
The corresponding values for `COc1cc(CN2CCN(C3CC4(C3)CN(c3ccc(C(=O)NS(=O)(=O)c5ccc(NC[C@H]6CC[C@](C)(O)CC6)c([N+](=O)[O-])c5)c(Oc5cnc6[nH]ccc6c5)c3)C4)[C@H](c3ccccc3C(C)C)C2)ccc1C1CCC1` [Example 342, 2-((1H-pyrrolo[2,5-b]pyridin-5-yl)oxy)-4-(6-((R)-4-(4-cyclobutyl-3-methoxybenzyl)-2-(2-isopropylphenyl)piperazin-1-yl)-2-azaspiro[3.3]heptan-2-yl)-N-((4-((((1r,4r)-4-hydroxy-4-methylcyclohexyl)methyl)amino)-3-nitrophenyl)sulfonyl)benzamide] are 0.28 nM, 3.3 nM, 2 nM, 0.97 nM and 2.9.
The corresponding values for `COC12CC3CC(CC(CN4CCN(C5CC6(C5)CN(c5ccc(C(=O)NS(=O)(=O)c7ccc(NC[C@H]8CC[C@](C)(O)CC8)c([N+](=O)[O-])c7)c(Oc7cnc8[nH]cc(F)c8c7)c5)C6)[C@H](c5ccccc5C(C)C)C4)(C3)C1)C2` [Example 352] are 0.45 nM, 2.2 nM, 4.56 nM, 0.52 nM and 4.2.
As for `COc1cc(CN2CCN(C3CC4(C3)CN(c3ccc(C(=O)NS(=O)(=O)c5ccc(NC[C@H]6CC[C@](C)(O)CC6)c([N+](=O)[O-])c5)c(Oc5cnc6[nH]cc(F)c6c5)c3)C4)[C@H](c3ccccc3C(C)C)C2)cc2c1OCCC2(F)F` [Example 354, 4-(6-((R)-4-((4,4-difluoro-8-methoxychroman-6-yl)methyl)-2-(2-isopropylphenyl)piperazin-1-yl)-2-azaspiro[3.3]heptan-2-yl)-2-((3-fluoro-1H-pyrrolo[2,3-b]pyridin-5-yl)oxy)-N-((4-((((1r,4r)-4-hydroxy-4-methylcyclohexyl)methyl)amino)-3-nitrophenyl)sulfonyl)benzamide], the IC50 is 0.14 nM in assay [1] (setting [9]), 1.9 nM in assay [2], 3 nM in assay [4] (Homo sapiens) and 0.9 nM in assay [5] (setting [7]). The “Ratio of Bcl-2 G101V/WT” value in assay [3] was found to be 2.2.
For `COc1ccc(CN2CCN(C3CC4(C3)CN(c3ccc(C(=O)NS(=O)(=O)c5ccc(NCC67CC8CC(C6)C(OC)C(C8)C7)c([N+](=O)[O-])c5)c(Oc5cnc6[nH]cc(F)c6c5)c3)C4)[C@H](c3ccccc3C(C)C)C2)cc1` (stereo partly drawn) [Example 356, 2-((3-fluoro-1H-pyrrolo[2,3-b]pyridin-5-yl)oxy)-4-(6-((R)-2-(2-isopropylphenyl)-4-(4-methoxybenzyl)piperazin-1-yl)-2-azaspiro[3.3]heptan-2-yl)-N-((4-((((1S,3R,7S)-4-methoxyadamantan-1-yl)methyl)amino)-3-nitrophenyl)sulfonyl) benzamide], in that order: 0.31 nM, 4.2 nM, 1.7 nM, 1.5 nM and 2.9.
For `CC(C)c1ccccc1[C@@H]1CN(Cc2ccc(N3CCOCC3)cc2)CCN1C1CC2(C1)CN(c1ccc(C(=O)NS(=O)(=O)c3ccc(NC[C@H]4CC[C@](C)(O)CC4)c([N+](=O)[O-])c3)c(Oc3cnc4[nH]cc(F)c4c3)c1)C2` [Example 368], in that order: 0.096 nM, 0.29 nM, 0.24 nM, 0.064 nM and 4.5.
